Measurements reported in patent US20120094998A1, “Oligomer-Protein Tyrosine Kinase Inhibitor Conjugates” (Nektar Therapeutics, priority 2009, published 2012).
Like-named read-outs stand apart in the source and are kept apart here.

Legend:
Format in all cases: biochemical
ABL (T315I) = ABL (T315I) (Homo sapiens, UniProt P00519, T315I); assay: Activity against various protein tyrosine kinases: ABL (T315I); settings: for inhibition at 0.01 µM: read-out: % Inhibition at 10 nM; for inhibition at 1 µM: read-out: % Inhibition at 1 μM
Protocol: (§1) Using techniques know those of ordinary skill in the art, compounds were tested for activity against various protein tyrosine kinases.

AurC = molecular target: T1, AurC (Homo sapiens, UniProt Q9UQB9); assay: Activity against various protein tyrosine kinases: AurC; settings: for inhibition at 0.01 µM: 10 nM
T1 sequence (Q9UQB9 1-309): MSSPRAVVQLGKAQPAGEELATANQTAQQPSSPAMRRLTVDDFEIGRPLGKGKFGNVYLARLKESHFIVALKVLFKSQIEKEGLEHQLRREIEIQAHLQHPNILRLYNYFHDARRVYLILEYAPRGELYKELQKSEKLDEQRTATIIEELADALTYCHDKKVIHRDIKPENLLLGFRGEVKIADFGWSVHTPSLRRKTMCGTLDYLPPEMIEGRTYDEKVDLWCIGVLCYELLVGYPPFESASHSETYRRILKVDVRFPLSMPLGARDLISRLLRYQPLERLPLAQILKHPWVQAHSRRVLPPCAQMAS
Protocol: as §1

Flt3 (D835Y) = molecular target: T2, Flt3 (D835Y) (Homo sapiens, UniProt P36888, D835Y); assay: Activity against various protein tyrosine kinases: Flt3 (D835Y); settings: for inhibition at 0.01 µM: 10 nM
T2 sequence (P36888 27-993 D835Y): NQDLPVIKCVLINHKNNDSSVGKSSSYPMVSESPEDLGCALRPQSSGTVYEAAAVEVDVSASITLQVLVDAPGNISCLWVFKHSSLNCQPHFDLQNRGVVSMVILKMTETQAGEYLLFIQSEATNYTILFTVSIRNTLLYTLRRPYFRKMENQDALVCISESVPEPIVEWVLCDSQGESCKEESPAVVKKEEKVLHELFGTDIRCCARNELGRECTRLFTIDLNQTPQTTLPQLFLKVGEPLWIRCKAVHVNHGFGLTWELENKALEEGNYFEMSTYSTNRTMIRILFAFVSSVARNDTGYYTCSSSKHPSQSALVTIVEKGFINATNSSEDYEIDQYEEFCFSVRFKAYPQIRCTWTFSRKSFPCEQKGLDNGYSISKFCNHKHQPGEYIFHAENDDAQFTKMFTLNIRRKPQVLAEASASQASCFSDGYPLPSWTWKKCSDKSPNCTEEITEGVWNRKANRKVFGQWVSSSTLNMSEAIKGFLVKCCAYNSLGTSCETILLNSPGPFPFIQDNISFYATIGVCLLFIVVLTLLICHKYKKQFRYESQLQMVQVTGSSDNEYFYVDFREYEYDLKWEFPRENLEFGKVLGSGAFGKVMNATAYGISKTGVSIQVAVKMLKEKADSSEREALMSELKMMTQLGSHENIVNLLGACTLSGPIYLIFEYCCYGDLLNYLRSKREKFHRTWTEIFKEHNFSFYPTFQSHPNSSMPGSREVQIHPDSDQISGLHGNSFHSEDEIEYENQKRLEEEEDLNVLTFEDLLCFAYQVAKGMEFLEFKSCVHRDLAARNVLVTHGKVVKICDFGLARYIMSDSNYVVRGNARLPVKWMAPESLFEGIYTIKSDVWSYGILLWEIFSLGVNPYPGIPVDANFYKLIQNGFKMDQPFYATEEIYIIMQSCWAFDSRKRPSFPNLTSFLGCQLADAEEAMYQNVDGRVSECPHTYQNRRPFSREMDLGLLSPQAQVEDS
Protocol: as §1

IKK-beta = molecular target: T3, IKK-beta (Homo sapiens, UniProt O14920); assay: Activity against various protein tyrosine kinases: IKK-beta; settings: for inhibition at 0.01 µM: 10 nM
T3 sequence (O14920 1-756): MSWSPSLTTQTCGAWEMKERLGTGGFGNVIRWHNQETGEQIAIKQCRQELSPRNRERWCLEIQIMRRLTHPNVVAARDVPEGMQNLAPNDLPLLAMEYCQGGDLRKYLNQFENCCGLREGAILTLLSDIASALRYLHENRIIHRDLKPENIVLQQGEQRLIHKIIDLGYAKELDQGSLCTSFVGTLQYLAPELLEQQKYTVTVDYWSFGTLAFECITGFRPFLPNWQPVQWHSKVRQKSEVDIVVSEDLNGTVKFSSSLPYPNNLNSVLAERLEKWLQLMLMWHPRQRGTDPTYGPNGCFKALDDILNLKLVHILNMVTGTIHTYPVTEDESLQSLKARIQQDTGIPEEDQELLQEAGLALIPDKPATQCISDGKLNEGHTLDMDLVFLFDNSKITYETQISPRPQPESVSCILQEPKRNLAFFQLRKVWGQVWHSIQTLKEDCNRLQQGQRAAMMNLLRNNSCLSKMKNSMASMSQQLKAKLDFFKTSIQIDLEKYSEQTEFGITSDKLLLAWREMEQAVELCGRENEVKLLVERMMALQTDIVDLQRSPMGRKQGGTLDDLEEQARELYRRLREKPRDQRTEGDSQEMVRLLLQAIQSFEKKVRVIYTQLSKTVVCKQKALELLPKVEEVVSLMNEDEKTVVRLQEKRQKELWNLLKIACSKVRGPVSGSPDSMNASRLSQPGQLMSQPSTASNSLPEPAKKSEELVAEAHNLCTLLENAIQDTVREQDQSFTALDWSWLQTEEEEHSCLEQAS
Protocol: as §1

INSR = INSR (Homo sapiens, UniProt P06213); assay: Activity against various protein tyrosine kinases: INSR; settings: for inhibition at 0.01 µM: 10 nM
Protocol: as §1

MAPKAPK3 = MAPKAPK3 (Homo sapiens, UniProt Q16644); assay: Activity against various protein tyrosine kinases: MAPKAPK3; settings: for inhibition at 0.01 µM: 10 nM
Protocol: as §1

PKA = assay: Activity against various protein tyrosine kinases: PKA
Protocol: as §1

Chain of INSR (P06213 28-1382, species assumed): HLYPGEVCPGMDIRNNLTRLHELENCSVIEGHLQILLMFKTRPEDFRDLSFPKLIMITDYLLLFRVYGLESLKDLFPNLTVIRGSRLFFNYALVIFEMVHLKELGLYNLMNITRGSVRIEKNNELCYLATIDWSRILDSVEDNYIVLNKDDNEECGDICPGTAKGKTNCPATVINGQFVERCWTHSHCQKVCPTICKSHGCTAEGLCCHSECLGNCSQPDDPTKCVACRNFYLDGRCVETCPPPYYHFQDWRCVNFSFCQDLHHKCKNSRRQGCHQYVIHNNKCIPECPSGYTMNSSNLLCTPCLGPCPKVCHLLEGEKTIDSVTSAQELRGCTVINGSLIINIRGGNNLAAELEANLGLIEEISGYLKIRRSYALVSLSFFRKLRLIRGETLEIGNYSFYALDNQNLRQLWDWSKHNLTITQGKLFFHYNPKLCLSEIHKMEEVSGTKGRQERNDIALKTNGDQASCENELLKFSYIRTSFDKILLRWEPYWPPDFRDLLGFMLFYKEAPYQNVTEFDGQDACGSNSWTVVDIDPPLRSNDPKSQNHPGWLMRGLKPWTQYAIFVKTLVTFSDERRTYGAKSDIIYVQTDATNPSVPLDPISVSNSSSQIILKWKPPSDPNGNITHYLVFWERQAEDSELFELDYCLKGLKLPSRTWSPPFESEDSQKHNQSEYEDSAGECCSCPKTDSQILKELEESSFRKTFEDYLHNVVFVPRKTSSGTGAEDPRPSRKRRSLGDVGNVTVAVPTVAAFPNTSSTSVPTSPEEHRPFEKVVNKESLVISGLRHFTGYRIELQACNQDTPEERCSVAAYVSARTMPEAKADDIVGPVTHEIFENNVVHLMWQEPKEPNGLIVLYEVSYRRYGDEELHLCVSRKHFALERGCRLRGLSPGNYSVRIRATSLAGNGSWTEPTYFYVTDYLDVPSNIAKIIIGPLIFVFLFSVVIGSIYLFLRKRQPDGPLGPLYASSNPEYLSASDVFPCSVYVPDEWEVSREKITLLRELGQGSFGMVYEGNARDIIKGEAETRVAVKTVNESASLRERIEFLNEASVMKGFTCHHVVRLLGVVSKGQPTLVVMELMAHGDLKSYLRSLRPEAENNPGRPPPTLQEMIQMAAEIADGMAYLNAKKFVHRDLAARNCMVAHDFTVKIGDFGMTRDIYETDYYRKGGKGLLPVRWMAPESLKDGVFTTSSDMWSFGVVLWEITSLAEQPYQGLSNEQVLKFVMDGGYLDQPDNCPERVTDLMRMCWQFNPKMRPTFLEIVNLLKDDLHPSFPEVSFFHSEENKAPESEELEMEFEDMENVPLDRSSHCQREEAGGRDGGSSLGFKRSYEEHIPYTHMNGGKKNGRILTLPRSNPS
Chain of MAPKAPK3 (Q16644 whole entry, species assumed): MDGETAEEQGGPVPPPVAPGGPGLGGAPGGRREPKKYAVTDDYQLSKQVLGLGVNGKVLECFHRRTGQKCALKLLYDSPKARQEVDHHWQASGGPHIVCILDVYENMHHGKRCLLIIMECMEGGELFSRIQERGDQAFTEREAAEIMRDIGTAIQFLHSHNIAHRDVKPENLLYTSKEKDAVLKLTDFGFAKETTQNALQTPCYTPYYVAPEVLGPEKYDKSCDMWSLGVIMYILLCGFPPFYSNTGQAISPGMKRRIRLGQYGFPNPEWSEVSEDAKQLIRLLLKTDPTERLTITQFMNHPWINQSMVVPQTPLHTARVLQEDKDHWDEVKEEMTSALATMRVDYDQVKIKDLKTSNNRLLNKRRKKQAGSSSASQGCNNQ

Row | Compound | inhibition at 0.01 µM (ABL (T315I)) | inhibition at 1 µM (ABL (T315I)) | inhibition at 0.01 µM (AurC) | inhibition at 1 µM (AurC) | inhibition at 0.01 µM (Flt3 (D835Y)) | inhibition at 1 µM (Flt3 (D835Y)) | inhibition at 0.01 µM (IKK-beta) | inhibition at 1 µM (IKK-beta) | inhibition at 0.01 µM (INSR) | inhibition at 1 µM (INSR) | inhibition at 0.01 µM (MAPKAPK3) | inhibition at 1 µM (MAPKAPK3) | % Inhibition at 10 nM (PKA) | % Inhibition at 1 μM (PKA) | inhibition at 0.01 µM (ABL (T315I); ABL (T315I), 10 nM) | inhibition at 1 µM (ABL (T315I); ABL (T315I), 1 μM)
1 | COCCOCCOCCNC(=O)OCCN1CCN(c2cc(Nc3ncc(C(=O)Nc4c(C)cccc4Cl)s3)nc(C)n2)CC1 [mPEG3-NHCOO-Dasatinib] | 1% | 36% | -1% | 0% | 6% | 10% | 0% | 1% | 1% | -1% | 5% | 3% | 3% | 0% |  | 
2 | COCCOCCOCCOCCOCCOCCOCCNC(=O)OCCN1CCN(c2cc(Nc3ncc(C(=O)Nc4c(C)cccc4Cl)s3)nc(C)n2)CC1 [mPEG7-NHCOO-Dasatinib] |  |  | 0% | 2% | 3% | 7% | 2% | 2% | 2% | 3% | 1% | 0% | 0% | 2% | 4% | 26%
